From patent US20090018194A1, “Use of antimicrobial agents derived from alliaceous plants for the prevention and control of crop diseases, post-harvest rot and as environmental disinifectant products” (DMC Research Center, S.L., priority 2007, published 2009)

Experiments:
[1] = system: Penicillium sp. (CPC-PT-2); assay: agar diffusion test, wild fungi isolated from crown rot in bananas; assay type: cell-based; conditions: incl. 6 mm disc
[2] = system: Escherichia coli CECT 515; assay: agar diffusion test with impregnated cellulose discs; assay type: cell-based; conditions: incl. 6 mm disc
[3] = system: Penicillium digitatum Wild strain Supplied by UdL-IRTA; assay: agar diffusion test, wild phytopathogens isolated from citrus rot; assay type: cell-based; conditions: incl. 6 mm disc
[4] = system: Penicillium digitatum Supplied by Brogdex SA; assay: as above; assay type: cell-based; conditions: incl. 6 mm disc
Penicillium expansum = assay: post-harvest rotting of inoculated pears, drencher treatment; assay type: in vivo; conditions: 15 days of refrigeration at 5-6° C.
Method: (§1) The effectiveness of the active principle PTS (in various individual doses) was studied in the control of post-harvest rotting of pears and apples caused by the fungi Botrytis cinerea and Penicillium expansum, the principal agents of diseases in these fruits. These phytopathogens can appear in fruit being stored in a cold room and, once in the processing plant and in a later phase, form colonies and are transferred from one fruit to another by contact. The study was performed by means of a controlled inoculation test to ensure a high percentage of affected fruits, and to guarantee that this level of infection is with certainty caused by these pathogens, thereby making it possible to detect and evaluate significant differences between the different treatments. […] To perform the controlled inoculation, wild strains of Botrytris cinerea and Penicillium expansum were used which were isolated in fruit and vegetable processing plants. […] After the time indicated above had passed, the various post-harvest treatments were carried out by means of […] 25° C. for 60 seconds.

Botrytis cinerea = assay: as above; assay type: in vivo; conditions: 15 days of refrigeration at 5-6° C.
Method: as §1

[5] = system: Micrococcus luteus ATCC 15307; assay: agar diffusion test with impregnated cellulose discs; assay type: cell-based; conditions: incl. 6 mm disc
[6] = system: Aspergillus terreus CECT 2663; assay: as above; assay type: cell-based; conditions: incl. 6 mm disc
[7] = system: Candida krusei ATCC 34135; assay: as above; assay type: cell-based; conditions: incl. 6 mm disc
Total mesophilic AEROBES = assay: environmental disinfection of banana storage and ripening rooms by fogging, air sampling; conditions: fogging of 1500 ppm solution; for MICROBE COUNTS Total mesophilic AEROBES CFU/dish: 80 liters collected/dish; for % REDUCTION OF ENVIRONMENTAL MICROBIOTA Population of total mesophilic aerobes: after vs before treatment
Method: (§2) A study was conducted to verify the environmental disinfecting capability of the compound PTS in rooms of a fruit and vegetable processing plant, in particular one that handled bananas. For test purposes, three separate rooms of the central were sampled, and the environmental quality was studied before and after the treatment with PTS. First, an environmental sample was taken in each room prior to the treatment, using an […]-Omega air sampling device manufactured by LCB, by suctioning a volume of air set at 80 L which impacted over the different cultivation media selected. The samples were taken in duplicate in the areas to be analyzed. PCA agar medium was used to count the total mesophilic aerobes, and the medium Rose Bengal agar was used to count the fungi. The environmental disinfectant treatment comprised fogging of a 1500 ppm solution of PTS. 5 liters of this solution were fogged for each 1000 m^3 of the room. […] Several hours after the fogging, the sampling operation was repeated in the different rooms that had been treated as described above. […] Once the incubation time had elapsed, the readings were taken by counting the microorganisms that appeared in each type of dish, expressed as cfu/dish.

FUNGI = assay: as above; conditions: fogging of 1500 ppm solution; for MICROBE COUNTS FUNGI CFU/dish: 80 liters collected/dish; for % REDUCTION OF ENVIRONMENTAL MICROBIOTA Fungal population: after vs before treatment
Method: as §2

[8] = system: Colletotrichum sp. (CPC-PC-6); assay: agar diffusion test, wild fungi isolated from crown rot in bananas; assay type: cell-based; conditions: incl. 6 mm disc
Method: A. The “in vitro” antimicrobial activity of these compounds was tested (referenced as PTS and PTSO), at different doses, as well as their activity against a broad spectrum of bacteria, fungi and yeasts. The tests were conducted against standard micro-organisms (reference strains from different collections of standard crops) and also against wild strains isolated from different types of rot and fruits and other affected crops.
These tests of antimicrobial capacity were conducted according to the agar diffusion technique, using cellulose discs 6 mm in diameter, impregnated with the different doses under study. For the assessment of the anti-fungal capability, the medium Sabouraud glucosate agar 2% was used, inoculated with suspensions of spores prepared to a concentration on the order of 10^8 cells/ml. To assess the antibacterial capability, the cultivation medium Müller-Hinton agar was used, inoculated with suspensions of bacteria prepared to a concentration of 10^6 cells/ml.
Once the plates were inoculated, the discs previously impregnated with the different test doses of each of the compounds to be analyzed were put in place. The reading was taken after incubation of the plates by measuring the zone of inhibition that appeared, and the result was expressed in mm corresponding to the diameter of the halo that appeared (including the 6 mm of the cellulose disc).
Once the screening of the anti-microbial capability of the compounds claimed by the invention had been performed over a broad range of reference strains, their efficiency was corroborated against wild strains, which we isolated as specific pathogens that affect different crops of different geographic origins.

[9] = Zone 1 of the ripening room after treatment
[10] = Zone 2 of the ripening room after treatment

Compound: CCCS[S+]([O-])CCC (stereo not shown) [PTS, Propyl Propyl Thiosulfinate]
- diameter of the microbial inhibition halo ([1]; 30 ppm): 0 mm
- diameter of the microbial inhibition halo ([1]; 60 ppm): 0 mm
- diameter of the microbial inhibition halo ([1]; 125 ppm): 0 mm
- diameter of the microbial inhibition halo ([1]; 250 ppm): 15 mm
- diameter of the microbial inhibition halo ([1]; 500 ppm): 25 mm
- diameter of the microbial inhibition halo ([1]; 1000 ppm): 25 mm
- diameter of the microbial inhibition halo ([2]; 25 ppm): 14 mm
- diameter of the microbial inhibition halo ([2]; 50 ppm): 17 mm
- diameter of the microbial inhibition halo ([2]; 100 ppm): 21 mm
- diameter of the microbial inhibition halo ([3]; 30 ppm): 12 mm
- diameter of the microbial inhibition halo ([3]; 60 ppm): 15 mm
- diameter of the microbial inhibition halo ([3]; 125 ppm): 20 mm
- diameter of the microbial inhibition halo ([3]; 250 ppm): 33 mm
- diameter of the microbial inhibition halo ([3]; 500 ppm): 40 mm
- diameter of the microbial inhibition halo ([3]; 1000 ppm): 41 mm
- diameter of the microbial inhibition halo ([4]; 30 ppm): 12 mm
- diameter of the microbial inhibition halo ([4]; 60 ppm): 15 mm
- diameter of the microbial inhibition halo ([4]; 125 ppm): 20 mm
- diameter of the microbial inhibition halo ([4]; 250 ppm): 33 mm
- diameter of the microbial inhibition halo ([4]; 500 ppm): 33 mm
- diameter of the microbial inhibition halo ([4]; 1000 ppm): 35 mm
- % of fruit affected (Penicillium expansum; Decana, 500 ppm): 0%
- % of fruit affected (Penicillium expansum; Decana, 666 ppm): 2%
- % of fruit affected (Penicillium expansum; Decana, 833 ppm): 0%
- % of fruit affected (Penicillium expansum; Decana, 1666 ppm): 3%
- % of fruit affected (Penicillium expansum; Flor de invierno, 500 ppm): 3.6%
- % of fruit affected (Penicillium expansum; Flor de invierno, 666 ppm): 2.2%
- % of fruit affected (Penicillium expansum; Flor de invierno, 833 ppm): 2.4%
- % of fruit affected (Penicillium expansum; Flor de invierno, 1666 ppm): 5.3%
- % of fruit affected (Botrytis cinerea; Decana, 500 ppm): 0%
- % of fruit affected (Botrytis cinerea; Decana, 666 ppm): 0%
- % of fruit affected (Botrytis cinerea; Decana, 833 ppm): 1%
- % of fruit affected (Botrytis cinerea; Decana, 1666 ppm): 0.5%
- % of fruit affected (Botrytis cinerea; Flor de invierno, 500 ppm): 3.5%
- % of fruit affected (Botrytis cinerea; Flor de invierno, 666 ppm): 0.4%
- % of fruit affected (Botrytis cinerea; Flor de invierno, 833 ppm): 3.7%
- % of fruit affected (Botrytis cinerea; Flor de invierno, 1666 ppm): 3%
- diameter of the microbial inhibition halo ([5]; 25 ppm): 19 mm
- diameter of the microbial inhibition halo ([5]; 50 ppm): 25 mm
- diameter of the microbial inhibition halo ([5]; 100 ppm): 32 mm
- diameter of the microbial inhibition halo ([6]; 25 ppm): 12 mm
- diameter of the microbial inhibition halo ([6]; 50 ppm): 22 mm
- diameter of the microbial inhibition halo ([6]; 100 ppm): 25 mm
- diameter of the microbial inhibition halo ([7]; 25 ppm): 14 mm
- diameter of the microbial inhibition halo ([7]; 50 ppm): 18 mm
- diameter of the microbial inhibition halo ([7]; 100 ppm): 29 mm
- MICROBE COUNTS Total mesophilic AEROBES CFU/m^3 (Total mesophilic AEROBES; Entry room after treatment): 314 CFU/m^3
- MICROBE COUNTS Total mesophilic AEROBES CFU/dish (Total mesophilic AEROBES; Entry room after treatment): 24 CFU/dish
- % REDUCTION OF ENVIRONMENTAL MICROBIOTA Population of total mesophilic aerobes (Total mesophilic AEROBES; Entry room): 65%
- MICROBE COUNTS Total mesophilic AEROBES CFU/m^3 (Total mesophilic AEROBES; [9]): 287 CFU/m^3
- MICROBE COUNTS Total mesophilic AEROBES CFU/dish (Total mesophilic AEROBES; [9]): 22 CFU/dish
- % REDUCTION OF ENVIRONMENTAL MICROBIOTA Population of total mesophilic aerobes (Total mesophilic AEROBES; Zone 1 of the ripening room): 69%
- MICROBE COUNTS Total mesophilic AEROBES CFU/m^3 (Total mesophilic AEROBES; [10]): 1487 CFU/m^3
- MICROBE COUNTS Total mesophilic AEROBES CFU/dish (Total mesophilic AEROBES; [10]): 96 CFU/dish
- % REDUCTION OF ENVIRONMENTAL MICROBIOTA Population of total mesophilic aerobes (Total mesophilic AEROBES; Zone 2 of the ripening room): 58%
- MICROBE COUNTS FUNGI CFU/m^3 (FUNGI; Entry room after treatment): 707 CFU/m^3
- MICROBE COUNTS FUNGI CFU/dish (FUNGI; Entry room after treatment): 51 CFU/dish
- % REDUCTION OF ENVIRONMENTAL MICROBIOTA Fungal population (FUNGI; Entry room): 70%
- MICROBE COUNTS FUNGI CFU/m^3 (FUNGI; [9]): 273 CFU/m^3
- MICROBE COUNTS FUNGI CFU/dish (FUNGI; [9]): 21 CFU/dish
- % REDUCTION OF ENVIRONMENTAL MICROBIOTA Fungal population (FUNGI; Zone 1 of the ripening room): 23%
- MICROBE COUNTS FUNGI CFU/m^3 (FUNGI; [10]): 328 CFU/m^3
- MICROBE COUNTS FUNGI CFU/dish (FUNGI; [10]): 25 CFU/dish
- % REDUCTION OF ENVIRONMENTAL MICROBIOTA Fungal population (FUNGI; Zone 2 of the ripening room): 36%
- diameter of the microbial inhibition halo ([8]; 30 ppm): 20 mm
- diameter of the microbial inhibition halo ([8]; 60 ppm): 30 mm
- diameter of the microbial inhibition halo ([8]; 125 ppm): 35 mm
- diameter of the microbial inhibition halo ([8]; 250 ppm): 47 mm
- diameter of the microbial inhibition halo ([8]; 500 ppm): 48 mm
- diameter of the microbial inhibition halo ([8]; 1000 ppm): 45 mm
